Data: patent publication US20250296959A1, “B7-H3 TARGETING PEPTIDES AND CONSTRUCTS THEREOF” (Mariana Oncology Inc., priority 2024, published 2025)
Read-outs that look alike come from different tables or passages of the source. Starred links: 1 amine or outer side, 2 acyl side, 3 side chain; linkers in the order of their positions; H or OH if unused. Positions of bridges follow the written chain, without caps; N, C: chain ends. Non-standard residues stand in square brackets, D forms with d. Residues, ends and D or L forms follow the SMILES beside them. Groups on a side chain read outwards from the residue. *: point of attachment. X2 = O=C(O)CN1CCN(CC(=O)O)CCN(CC(=O)NCCOCCOCCOCCOCC(=O)*)CCN(CC(=O)O)CC1; X4 = O=C(O)CN1CCN(CC(=O)O)CCN([C@H](CCC(=O)*)C(=O)O)CCN(CC(=O)O)CC1; Ala(piperidin-4-yl) = O=C([C@H](CC1CCN([*:3])CC1)N[*:1])[*:2]; DOTA = O=C(O)CN1CCN(CC(=O)O)CCN(CC(=O)*)CCN(CC(=O)O)CC1; Trp(5-F) = N[C@@H](Cc1c[nH]c2ccc(F)cc12)C(=O)O; X1 = C[C@@H](c1ccccc1)[C@H](N[*:1])C(=O)[*:2]; Ala(4-THP) = N[C@@H](CC1CCOCC1)C(=O)O; Val(3-OH) = CC(C)(O)[C@H](N)C(=O)O; PEG4 = NCCOCCOCCOCCOCCC(=O)O; Tle = CC(C)(C)[C@H](N)C(=O)O; hLeu = CC(C)CC[C@H](N)C(=O)O

Experiments:
Calu-6 cell line [1] = assay: Cell associated (bound) fraction of [177Lu]Lu-labeled peptide in Calu-6 cells; format: cell-based, Human; conditions: 1 hour, 37° C.
Method: (§1) [^177Lu]LuCl3 was received from venders in HCl solution. For every mCi of [^177Lu]LuCl3 added to the reaction vial (1.5 mL Eppendorf vial), ammonium acetate buffer (0.2 M, pH 4.9, 100 μL, containing 1% w/v ascorbic acid and 6% v/v ethanol) and peptide conjugate (1 nmol) was added. The pH of the solution was determined to be approximately 5 by using pH strips. The reaction vial was incubated at 80° C., 700 RPM for 17-20 minutes. A sample from the reaction was analyzed by RP-HPLC using an Agilent Infinity II 1260 HPLC to determine reaction completion and radiochemical purity. HPLC conditions: Waters XBridge BEH C18 Column, 130 Å, 3.5 μm, 4.6 mm×250 mm; mobile phase: Solvent A=water (with 0.1% formic acid), solvent B=acetonitrile (with 0.1% formic acid). Gradients: 25-45% B in 10 minutes, 45-65% B in 12 minutes, 65-90% in 6 minutes at a flow rate of 0.5 mL/minute. Required amounts of the product were formulated in 1% PBSA for cell studies.
(§2) The study was conducted using Calu-6 cell line (Table 8)
(§3) Adherent cell studies: The cells were cultured in appropriate culture media (20 mL) in tissue culture treated T150 flasks at 37° C. and 5% CO2. Adherent cells were detached (60-70% confluent) using 5 mL Versene at 37° C. for 3 minutes. After confirming the viability using countess and count of detached cells using Trypan blue, the cells were centrifuged at 4° C. for 5 minutes (1,000 revolutions per minute). The cell pellet obtained was washed once with PBS and resuspended in 1% PBSA to obtain the desired cell concentration (5 million cells/mL).
Cell associated fraction: Cells were incubated with 300 μL (0.8 μCi) of the incubation buffer (containing radiolabeled peptide [^177Lu]Lu-test peptide) for 1 hour at 37 C (Table 9). Post incubation, the cells were pelleted and washed 2 times using cold PBS+1% BSA. The supernatant and washes were combined and counted together as “unbound fraction” in a gamma counter. The cells were then resuspended in 300 μL of 1% PBS+1% BSA and counted in the gamma counter as cell associated fraction (or bound fraction).
(§4) Calu-6 Cells are Human-Derived, Non-Engineered Lung Cancer Cell that Express B7-H3.

Calu-6 cell line [2] = assay: Net internalization of [177Lu]Lu-labeled peptide in Calu-6 cells; format: cell-based, Human; conditions: 1 hour, 37° C., glycine pH 2.5 acid wash
Method: as §1, §2, §3
Net internalization: The resuspended cells in 300 μl of 1% PBSA and counted in the gamma counter as “bound fraction” were collected in 1.5 mL Eppendorf tube and pelleted. The pelleted cells were incubated with 300 μl of 50 mM Glycine pH=2.5 for 3 minutes and then pelleted discarding the supernatant. This process was repeated one more time. The pelleted cells were washed with 300 μl of cold 1% PBSA and then resuspended in 300 μl 0.3 M NaOH. This was counted in the gamma counter as “internalized fraction”.
as §4

human 4lg B7-H3 = molecular target: T1, human 4lg B7-H3 (Homo sapiens, UniProt Q5ZPR3); assay: Affinity determination by surface plasmon resonance (SPR) to 4Ig B7-H3; conditions: 4Ig B7-H3
T1 sequence (Q5ZPR3 29-534): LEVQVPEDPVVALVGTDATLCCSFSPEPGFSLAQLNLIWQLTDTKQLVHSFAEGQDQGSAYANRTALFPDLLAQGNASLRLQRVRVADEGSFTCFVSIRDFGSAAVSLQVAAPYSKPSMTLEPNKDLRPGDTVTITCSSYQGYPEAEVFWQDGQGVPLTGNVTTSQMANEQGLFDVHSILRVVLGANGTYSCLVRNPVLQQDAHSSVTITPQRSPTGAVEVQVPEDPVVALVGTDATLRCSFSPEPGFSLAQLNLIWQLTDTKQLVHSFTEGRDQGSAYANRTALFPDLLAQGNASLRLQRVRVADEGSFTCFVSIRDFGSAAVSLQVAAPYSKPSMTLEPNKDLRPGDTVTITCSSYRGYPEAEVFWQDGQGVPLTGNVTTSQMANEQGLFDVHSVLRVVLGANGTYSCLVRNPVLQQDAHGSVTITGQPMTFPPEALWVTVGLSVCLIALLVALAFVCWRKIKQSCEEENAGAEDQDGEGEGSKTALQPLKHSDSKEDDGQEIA

[3] = read-out: SPR KD—37° C., 37° C. flow cell temperature
[4] = read-out: SPR KD—25° C., 25° C. flow cell temperature

Row | SMILES | % cell associated fraction (Calu-6 cell line [1]) | % net internalization (Calu-6 cell line [2]) | Kd (human 4lg B7-H3; [3]) | Kd (human 4lg B7-H3; [4]) | Kd (human 4lg B7-H3; SPR KD—25° C., 25° C. flow cell temperature)
1 | CC(=O)N[C@@H](CCC(C)C)C(=O)N[C@@H](Cc1ccc(O)cc1)C(=O)N[C@H]1CSSC[C@@H](C(=O)N[C@@H](Cc2c[nH]c3ccc(F)cc23)C(=O)N[C@@H](Cc2ccccc2)C(=O)N[C@H](C(=O)N[C@H](C)C(N)=O)C(C)(C)O)NC(=O)[C@H](Cc2ccc(O)cc2)NC(=O)[C@H](C(C)C)NC(=O)[C@H](CC(=O)O)NC(=O)[C@H](CC2CCN(C(=O)CCOCCOCCOCCOCCNC(=O)CN3CCN(CC(=O)O)CCN(CC(=O)O)CCN(CC(=O)O)CC3)CC2)NC(=O)[C@H](CCCCN)NC(=O)CNC(=O)[C@H](C(C)(C)C)NC1=O [compound 385, Ac-hLeu-Y-C-Tbg-G-K-Pip(PEG4-DOTA)Ala-D-V-Y-C-5FW-F-hydroxyVal-dAla-CONH2] (Ac-[hLeu]YC[Tle]GK[Ala(piperidin-4-yl)]([PEG4-DOTA])DVYC[Trp(5-F)]F[Val(3-OH)][dA]-NH2; disulfide 3-11) | C (%>50) | B (25<%≤50) | < 1 nM | – | –
2 | CC(=O)N[C@@H](CCC(C)C)C(=O)N[C@@H](Cc1ccc(O)cc1)C(=O)N[C@H]1CSSC[C@@H](C(=O)N[C@@H](Cc2c[nH]c3ccc(F)cc23)C(=O)N[C@@H](Cc2ccccc2)C(=O)N[C@H](C(=O)N[C@H](CCCCNC(=O)CC[C@H](C(=O)O)N2CCN(CC(=O)O)CCN(CC(=O)O)CCN(CC(=O)O)CC2)C(=O)O)C(C)(C)O)NC(=O)[C@H](Cc2ccc(O)cc2)NC(=O)[C@H](C(C)C)NC(=O)[C@H](CC(=O)O)NC(=O)[C@H](CC2CCOCC2)NC(=O)[C@H](CC2CCNCC2)NC(=O)CNC(=O)[C@H](C(C)(C)C)NC1=O [compound 438, Ac-hLeu-Y-C-Tbg-G-PipAla-ThpA-D-V-Y-C-5FW-F-hydroxyVal-dLys(R-DOTAGA)-COOH] (Ac-[hLeu]YC[Tle]G[Ala(piperidin-4-yl)][Ala(4-THP)]DVYC[Trp(5-F)]F[Val(3-OH)][dK](X4)-OH; disulfide 3-11) | B (25<%≤50) | A (%≤25) | < 1 nM | – | –
3 | CC(=O)N[C@@H](CCC(C)C)C(=O)N[C@@H](Cc1ccc(O)cc1)C(=O)N[C@H]1CSSC[C@@H](C(=O)N[C@@H](Cc2c[nH]c3ccc(F)cc23)C(=O)N[C@@H](Cc2ccccc2)C(=O)N2CCC[C@H]2C(=O)N[C@H](CCCCNC(=O)CN2CCN(CC(=O)O)CCN(CC(=O)O)CCN(CC(=O)O)CC2)C(=O)O)NC(=O)[C@H](Cc2ccc(O)cc2)NC(=O)[C@H](C(C)C)NC(=O)[C@H](CC(=O)O)NC(=O)[C@H](CC2CCOCC2)NC(=O)[C@H](CCCCN)NC(=O)CNC(=O)[C@H](C(C)C)NC1=O [compound 288, Ac-hLeu-Y-C-V-G-K-ThpA-D-V-Y-C-5FW-F-Pro-dLys(DOTA)-COOH] (Ac-[hLeu]YCVGK[Ala(4-THP)]DVYC[Trp(5-F)]FP[dK](DOTA)-OH; disulfide 3-11) | B (25<%≤50) | A (%≤25) | – | < 1 nM | –
4 | CC[C@H](C)[C@@H]1NC(=O)[C@@H](NC(=O)[C@H](Cc2ccc(O)cc2)NC(=O)[C@H](CCC(C)C)NC(C)=O)CSSC[C@@H](C(=O)N[C@@H](Cc2c[nH]c3ccc(F)cc23)C(=O)N[C@@H](Cc2ccccc2)C(=O)N[C@H](C(=O)N[C@H](CCCCNC(=O)COCCOCCOCCOCCNC(=O)CN2CCN(CC(=O)O)CCN(CC(=O)O)CCN(CC(=O)O)CC2)C(=O)O)C(C)(C)O)NC(=O)[C@H](Cc2ccc(O)cc2)NC(=O)[C@H](C(C)C)NC(=O)[C@H](CC(=O)O)NC(=O)[C@H](CC2CCOCC2)NC(=O)[C@H](CCCCN)NC(=O)CNC1=O [compound 308, Ac-hLeu-Y-C-Ile-G-K-ThpA-D-V-Y-C-5FW-F-hydroxyVal-dLys(PEG4-DOTA)-COOH] (Ac-[hLeu]YCIGK[Ala(4-THP)]DVYC[Trp(5-F)]F[Val(3-OH)][dK](X2)-OH; disulfide 3-11) | C (%>50) | B (25<%≤50) | – | – | < 1 nM
5 | CC(=O)N[C@@H](CCC(C)C)C(=O)N[C@@H](Cc1ccc(O)cc1)C(=O)N[C@H]1CSSC[C@@H](C(=O)N[C@@H](Cc2c[nH]c3ccc(F)cc23)C(=O)N[C@H](C(=O)N[C@H](C(=O)N[C@H](CCCCNC(=O)[C@@H](CCC(=O)O)NC(=O)CN2CCN(CC(=O)O)CCN(CC(=O)O)CCN(CC(=O)O)CC2)C(=O)O)C(C)(C)O)[C@@H](C)c2ccccc2)NC(=O)[C@H](Cc2ccc(O)cc2)NC(=O)[C@H](C(C)C)NC(=O)[C@H](CC(=O)O)NC(=O)[C@H](CC2CCOCC2)NC(=O)[C@H](CC2CCNCC2)NC(=O)CNC(=O)[C@H](C(C)(C)C)NC1=O [compound 501, Ac-hLeu-Y-C-Tbg-G-PipAla-ThpA-D-V-Y-C-5FW-[(2S, 3S)beta-Me-Phe]-hydroxyVal-dLys(dGlu-DOTA)-COOH] (Ac-[hLeu]YC[Tle]G[Ala(piperidin-4-yl)][Ala(4-THP)]DVYC[Trp(5-F)][X1][Val(3-OH)][dK]([dE-DOTA])-OH; disulfide 3-11) | C (%>50) | B (25<%≤50) | < 1 nM | – | –
6 | CC(=O)N[C@@H](CCC(C)C)C(=O)N[C@@H](Cc1ccc(O)cc1)C(=O)N[C@H]1CSSC[C@@H](C(=O)N[C@@H](Cc2c[nH]c3ccc(F)cc23)C(=O)N[C@@H](Cc2ccccc2)C(=O)N2CCC[C@H]2C(=O)N[C@H](CCCCNC(=O)CN2CCN(CC(=O)O)CCN(CC(=O)O)CCN(CC(=O)O)CC2)C(N)=O)NC(=O)[C@H](Cc2ccc(O)cc2)NC(=O)[C@H](C(C)C)NC(=O)[C@H](CC(=O)O)NC(=O)[C@H](Cc2ccc(O)cc2)NC(=O)[C@H](CCCCN)NC(=O)CNC(=O)[C@H](C(C)C)NC1=O [compound 160, Ac-hLeu-Y-C-V-G-K-Y-D-V-Y-C-5FW-F-Pro-dLys(DOTA)-CONH2] (Ac-[hLeu]YCVGKYDVYC[Trp(5-F)]FP[dK](DOTA)-NH2; disulfide 3-11) | B (25<%≤50) | A (%≤25) | – | < 1 nM | –
7 | CC(=O)N[C@@H](CCC(C)C)C(=O)N[C@@H](Cc1ccc(O)cc1)C(=O)N[C@H]1CSSC[C@@H](C(=O)N[C@@H](Cc2c[nH]c3ccccc23)C(=O)N[C@@H](Cc2ccccc2)C(=O)N[C@H](C(=O)N[C@H](CCCCNC(=O)CN2CCN(CC(=O)O)CCN(CC(=O)O)CCN(CC(=O)O)CC2)C(N)=O)[C@@H](C)O)NC(=O)[C@H](Cc2ccc(O)cc2)NC(=O)[C@H](C(C)C)NC(=O)[C@H](CC(=O)O)NC(=O)[C@H](Cc2ccc(O)cc2)NC(=O)[C@H](CCCCN)NC(=O)CNC(=O)[C@H](C(C)(C)C)NC1=O [compound 72, Ac-hLeu-Y-C-Tbg-G-K-Y-D-V-Y-C-W-F-Thr-dLys(DOTA)-CONH2] (Ac-[hLeu]YC[Tle]GKYDVYCWFT[dK](DOTA)-NH2; disulfide 3-11) | C (%>50) | A (%≤25) | – | < 1 nM | –
